This passage reports IC50 results from patent US7429599B2, “Methods for treating or preventing an inflammatory or metabolic condition or inhibiting JNK” (Signal Pharmaceuticals, LLC, priority 2000, dated 2008).

Structures can show the parent of a compound that is named as a salt. Where only a bound is given, the exact number is not on record here.

The target of this experiment is T1, His6-JNK2 (Homo sapiens, UniProt P45984).
T1 construct: His6 (N)
T1 sequence (P45984 whole entry): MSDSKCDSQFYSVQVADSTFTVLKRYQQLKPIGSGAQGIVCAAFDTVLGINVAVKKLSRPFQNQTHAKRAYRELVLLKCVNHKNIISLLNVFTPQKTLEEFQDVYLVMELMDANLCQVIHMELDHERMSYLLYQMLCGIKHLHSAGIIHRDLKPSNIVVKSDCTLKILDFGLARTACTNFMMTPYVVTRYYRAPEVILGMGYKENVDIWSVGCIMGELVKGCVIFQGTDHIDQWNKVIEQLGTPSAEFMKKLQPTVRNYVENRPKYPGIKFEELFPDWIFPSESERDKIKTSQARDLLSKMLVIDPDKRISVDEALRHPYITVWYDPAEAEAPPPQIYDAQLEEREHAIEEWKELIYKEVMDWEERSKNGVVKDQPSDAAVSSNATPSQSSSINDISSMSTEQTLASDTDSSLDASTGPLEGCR
The experiment in a line: JNK2 Assay (c-Jun phosphorylation, 32P-ATP filter plate). It counts as biochemical. As to conditions: c-Jun phosphorylation reduced to 50% of control; GST-c-Jun(1-79), 11 μM ATP; read-out: IC50 value in the JNK2 Assay. How it is done:
To 10 μL of the test compound in 20%/DMSO/80% dilutien buffer consisting of 20 mM HELPS (pH 7.6), 0.1 mM; EDTA, 2.5 mM magnesium chloride, 0.004% Triton×100, 2 μg/mL leupeptin, 20 mM β-glycerolphosphate, 0.1 mM sodium vanadate, and 2 mM DTT in water is added 30 μL of 50 ng His6-JNK2 in the same dilution buffer. The mixture is preincubated for 30 minutes at room temperature. Sixty microliter of 10 μg GST-c-Jun(1-79) in assay buffer consisting of 20 mM HEPES (pH 7.6), 50 mM sodium chloride, 0.1 mM EDTA, 24 mM magnesium chloride, 1 mM DTT, 25 mM PNPP, 0.05% Triton×100, 11 μM ATP, and 0.5 μCi γ-^32P ATP in water is added and the reaction is allowed to proceed for 1 hour at room temperature. The c-Jun phosphorylation is terminated by addition of 150 μL of 12.5% trichloroacetic acid. After 30 minutes, the precipitate is harvested onto a filter plate, diluted with 50 μL of the scintillation fluid and quantified by a counter. The IC50 values are calculated as the concentration of the test compound at which the c-Jun phosphorylation is reduced to 50% of the control value.
What is called IC50 is the midpoint of a concentration-inhibition curve. Take `O=C(NCCN1CCOCC1)c1ccc(Nc2nccc(-c3ccc(Cl)cc3)n2)cc1` [Compound 17-142]: the IC50 was not above 10 µM.
Then `O=C(c1ccc(Nc2nccc(-c3ccc(Cl)cc3)n2)cc1)N1CCN(c2cccc(C(F)(F)F)c2)CC1` [Compound 17-143], with not above 10 µM.
As for `O=C(c1ccc(Nc2nccc(-c3ccc(Cl)cc3)n2)cc1)N1CC=CCC1` [Compound 17-144], the IC50 is not above 10 µM.
As for `CCN(Cc1ccncc1)C(=O)c1ccc(Nc2nccc(-c3ccc(Cl)cc3)n2)cc1` [Compound 17-147], the 50% inhibitory concentration (IC50) is not above 1 µM.
In the case of `O=C(c1ccc(Nc2nccc(-c3ccc(Cl)cc3)n2)cc1)N1CCN(c2ccccn2)CC1` [Compound 17-148] it was not above 10 µM; in that of `O=C(c1ccc(Nc2nccc(-c3ccc(Cl)cc3)n2)cc1)N1CCN(c2ccc(F)cc2)CC1` [Compound 17-149], not above 10 µM; in that of `CN(C)CCN(Cc1ccccc1)C(=O)c1ccc(Nc2nccc(-c3ccc(Cl)cc3)n2)cc1` [Compound 17-150], not above 10 µM.
Then `CN(CCc1ccccn1)C(=O)c1ccc(Nc2nccc(-c3ccc(Cl)cc3)n2)cc1` [Compound 17-151], with not above 10 µM; and `CN1CCCC1CCNC(=O)c1ccc(Nc2nccc(-c3ccc(Cl)cc3)n2)cc1` (centres unmarked) [Compound 17-152], with not above 10 µM.
In the case of `CCN(CC)CCCNC(=O)c1ccc(Nc2nccc(-c3ccc(Cl)cc3)n2)cc1` [Compound 17-153] it was not above 10 µM; in that of `CN(C)CCCNC(=O)c1ccc(Nc2nccc(-c3ccc(Cl)cc3)n2)cc1` [Compound 17-154], not above 1 µM; in that of `CN(Cc1ccccc1)C(=O)c1ccc(Nc2nccc(-c3ccc(Cl)cc3)n2)cc1` [Compound 17-157], not above 10 µM.
`O=C(c1ccc(Nc2nccc(-c3ccc(Cl)cc3)n2)cc1)N1CCN(c2ccccc2)CC1` [Compound 17-158]: the 50% inhibitory concentration (IC50) was not above 10 µM.
As to `O=C(c1ccc(Nc2nccc(-c3ccc(Cl)cc3)n2)cc1)N1CCN(C(=O)c2ccco2)CC1` [Compound 17-159], the IC50 is not above 10 µM.
Then `CC(=O)N1CCCN(C(=O)c2ccc(Nc3nccc(-c4ccc(Cl)cc4)n3)cc2)CC1` [Compound 17-160], with not above 10 µM; and `O=C(c1ccc(Nc2nccc(-c3ccc(Cl)cc3)n2)cc1)N1CCN(Cc2cccnc2)CC1` [Compound 17-161], with not above 10 µM; and `CCN(C(C)=O)C1CCN(C(=O)c2ccc(Nc3nccc(-c4ccc(Cl)cc4)n3)cc2)C1` (centres unmarked) [Compound 17-162], with not above 10 µM.
In the case of `CC(=O)N(C)C1CCN(C(=O)c2ccc(Nc3nccc(-c4ccc(Cl)cc4)n3)cc2)C1` (centres unmarked) [Compound 17-163] it was not above 10 µM.
In the case of `CN1CCN(CCCNC(=O)c2ccc(Nc3nccc(-c4ccc(Cl)cc4)n3)cc2)CC1` [Compound 17-164] it was not above 10 µM.
Take `O=C(c1ccc(Nc2nccc(-c3ccc(Cl)cc3)n2)cc1)N1CCC(N2CCCCC2)CC1` [Compound 17-169]: the IC50 was not above 1 µM.
In the case of `O=C(c1ccc(Nc2nccc(-c3ccc(Cl)cc3)n2)cc1)N1CCC(N2CCCC2)CC1` [Compound 17-171] it was not above 1 µM.
In the case of `C[C@@H]1CN(C(=O)c2ccc(Nc3nccc(-c4ccc(Cl)cc4)n3)cc2)C[C@H](C)N1` [Compound 17-190] it was not above 1 µM; in that of `O=C(c1ccc(Nc2nccc(-c3ccc(Cl)cc3)n2)cc1)N1CCN(CCO)CC1` [Compound 17-215], not above 10 µM.
On to `O=C(c1ccc(Nc2nccc(-c3ccc(Cl)cc3)n2)cc1)N1CCNCC1` [Compound 18, 4-{[4-(4-Chlorophenyl)pyrimidin-2-yl]amino}benzoic acid piperazine amide hydrochloride], for which the IC50 was not above 1 µM.
In the case of `CC(=O)NC1CCN(C(=O)c2ccc(Nc3nccc(-c4ccc(Cl)cc4)n3)cc2)CC1` [Compound 20-1] it was not above 1 µM; in that of `Cc1noc(C)c1C(=O)NC1CCN(C(=O)c2ccc(Nc3nccc(-c4ccc(Cl)cc4)n3)cc2)CC1` [Compound 20-2], not above 10 µM.
For `O=C(NC1CCN(C(=O)c2ccc(Nc3nccc(-c4ccc(Cl)cc4)n3)cc2)CC1)c1cccs1` [Compound 20-3], the IC50 was not above 1 µM.
With `O=C(NC1CCN(C(=O)c2ccc(Nc3nccc(-c4ccc(Cl)cc4)n3)cc2)CC1)N1CCOCC1` [Compound 20-4], the IC50 is not above 1 µM.
Then `CN(C)C(=O)NC1CCN(C(=O)c2ccc(Nc3nccc(-c4ccc(Cl)cc4)n3)cc2)CC1` [Compound 20-5], with not above 10 µM.
Then `COCC(=O)NC1CCN(C(=O)c2ccc(Nc3nccc(-c4ccc(Cl)cc4)n3)cc2)CC1` [Compound 20-6], with not above 10 µM; and `CN(C)CCNC1CCN(C(=O)c2ccc(Nc3nccc(-c4ccc(Cl)cc4)n3)cc2)CC1` [Compound 22-10], with not above 1 µM.
In the case of `O=C(c1ccc(Nc2nccc(-c3ccc(Cl)cc3)n2)cc1)N1CCC(NCCO)CC1` [Compound 22-11] it was not above 1 µM.
